Laboratory results taken from ChEMBL document CHEMBL1201862, “PubChem BioAssay data set” (2004).
Activity calls are given as the source filed them.

Columns and labels:
[1] = Luminescence Cell-Based Dose Retest to Confirm Inhibitors of Cancer Stem Cells. [Related pubchem assays (depositor defined):AID2717, AID2721]; assay type: functional; conditions: Homo sapiens
[2] = molecular target: T1, Ubiquitin-conjugating enzyme E2 N (Homo sapiens, UniProt P61088); assay type: functional;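 also: Dose-response confirmation in a TR-FRET assay detecting UBC13-driven polyubiquitin chain formation, inhibition measured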
T1 sequence (P61088 whole entry): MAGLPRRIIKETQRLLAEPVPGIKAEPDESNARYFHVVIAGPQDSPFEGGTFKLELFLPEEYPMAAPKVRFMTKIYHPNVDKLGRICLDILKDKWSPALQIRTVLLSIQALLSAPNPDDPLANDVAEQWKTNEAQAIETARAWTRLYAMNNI

[3] = molecular target: T2, Microphthalmia-associated transcription factor (Homo sapiens, UniProt O75030); assay: TRPM1 promoter luciferase signal decrease, dose response, MITF inhibitor project, cell-based, SK-MEL-5, cherry-picked, set 3 (AID 493073); assay type: functional
T2 sequence (O75030 whole entry): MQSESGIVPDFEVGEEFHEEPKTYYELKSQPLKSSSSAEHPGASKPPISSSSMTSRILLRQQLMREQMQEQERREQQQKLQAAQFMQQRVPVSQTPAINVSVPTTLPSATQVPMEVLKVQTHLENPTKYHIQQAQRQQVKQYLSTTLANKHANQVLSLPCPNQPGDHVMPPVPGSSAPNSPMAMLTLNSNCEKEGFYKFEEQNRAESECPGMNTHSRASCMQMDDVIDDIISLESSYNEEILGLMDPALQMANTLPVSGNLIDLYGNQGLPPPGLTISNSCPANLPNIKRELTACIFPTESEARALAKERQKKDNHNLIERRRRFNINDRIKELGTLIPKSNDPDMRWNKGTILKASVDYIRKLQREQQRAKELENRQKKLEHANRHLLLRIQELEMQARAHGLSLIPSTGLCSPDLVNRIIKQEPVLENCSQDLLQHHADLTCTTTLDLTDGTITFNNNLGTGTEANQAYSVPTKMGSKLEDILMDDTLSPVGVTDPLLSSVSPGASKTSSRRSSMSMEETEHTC

[4] = tested on: INS1; assay: beta cell apoptosis inhibitors, cytokine rescue, dose response, luminescence, retest (AID 449756); assay type: functional, cell-based; conditions: Rattus norvegicus;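 also: cell death triggered by IL-1 beta plus TNF-alpha plus IFN-gamma mixture; protective hits raise ATP signal compared with cytokine alone wells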
[5] = tested on: A-375; assay: A375 melanoma cell viability reduction, dose response, counter-screen for MITF modulator project, cherry-pick samples, set 2 (AID 540335); assay type: functional, cell-based; conditions: Homo sapiens
[6] = molecular target: Cytochrome P450 2C19 (Homo sapiens, UniProt P33261); assay: Cytochrome panel assay with activity outcomes. Panel member name: p450-cyp2c19 Compounds with AC50 equal or less than 10 uM are considered active; assay type: functional; conditions: read-out: AC50
Sequence of Cytochrome P450 2C19 (P33261 whole entry): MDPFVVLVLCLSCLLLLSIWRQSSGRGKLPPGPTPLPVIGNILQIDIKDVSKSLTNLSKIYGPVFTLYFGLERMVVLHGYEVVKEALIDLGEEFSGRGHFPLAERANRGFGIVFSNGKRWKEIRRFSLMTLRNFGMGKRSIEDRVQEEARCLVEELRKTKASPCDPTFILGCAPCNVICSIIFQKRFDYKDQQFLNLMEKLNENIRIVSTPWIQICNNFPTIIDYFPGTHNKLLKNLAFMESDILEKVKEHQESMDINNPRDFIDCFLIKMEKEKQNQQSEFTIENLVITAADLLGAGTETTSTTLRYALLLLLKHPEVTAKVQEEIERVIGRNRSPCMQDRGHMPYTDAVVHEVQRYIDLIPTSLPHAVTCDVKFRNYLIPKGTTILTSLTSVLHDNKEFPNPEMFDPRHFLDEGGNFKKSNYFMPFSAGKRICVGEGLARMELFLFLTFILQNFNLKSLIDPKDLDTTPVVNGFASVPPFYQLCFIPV

[7] = molecular target: Cytochrome P450 2C9 (Homo sapiens, UniProt P11712)
Sequence of Cytochrome P450 2C9 (P11712 whole entry): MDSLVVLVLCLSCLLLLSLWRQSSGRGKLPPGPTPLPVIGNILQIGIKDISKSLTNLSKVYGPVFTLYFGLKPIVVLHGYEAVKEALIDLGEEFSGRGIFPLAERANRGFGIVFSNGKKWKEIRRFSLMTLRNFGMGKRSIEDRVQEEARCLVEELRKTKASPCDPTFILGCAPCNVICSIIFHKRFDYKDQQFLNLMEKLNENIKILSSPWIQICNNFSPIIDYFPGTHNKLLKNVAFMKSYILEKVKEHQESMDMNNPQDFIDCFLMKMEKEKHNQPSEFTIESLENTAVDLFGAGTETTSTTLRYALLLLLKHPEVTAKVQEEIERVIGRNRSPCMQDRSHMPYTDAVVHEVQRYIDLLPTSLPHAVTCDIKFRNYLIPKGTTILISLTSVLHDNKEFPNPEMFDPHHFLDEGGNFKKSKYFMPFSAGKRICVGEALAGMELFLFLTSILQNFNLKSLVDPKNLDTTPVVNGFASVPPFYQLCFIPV

[8] = molecular target: Cytochrome P450 3A4 (Homo sapiens, UniProt P08684);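 also: CYP3A4 tested as one member of a cytochrome P450 panel screen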
Sequence of Cytochrome P450 3A4 (P08684 whole entry, the tested form may be a part): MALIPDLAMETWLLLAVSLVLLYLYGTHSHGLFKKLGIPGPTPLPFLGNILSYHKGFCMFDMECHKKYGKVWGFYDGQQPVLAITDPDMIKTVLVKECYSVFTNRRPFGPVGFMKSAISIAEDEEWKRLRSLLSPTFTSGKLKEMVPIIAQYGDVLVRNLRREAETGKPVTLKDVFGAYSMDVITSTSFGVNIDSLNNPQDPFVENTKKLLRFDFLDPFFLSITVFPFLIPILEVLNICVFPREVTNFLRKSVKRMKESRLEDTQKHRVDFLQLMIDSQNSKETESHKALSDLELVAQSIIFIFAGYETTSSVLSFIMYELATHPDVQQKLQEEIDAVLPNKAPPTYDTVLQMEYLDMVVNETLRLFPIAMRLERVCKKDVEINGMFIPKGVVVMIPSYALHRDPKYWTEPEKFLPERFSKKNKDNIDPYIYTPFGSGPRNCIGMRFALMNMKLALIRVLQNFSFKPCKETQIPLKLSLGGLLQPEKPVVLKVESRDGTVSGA

[9] = molecular target: T3, RNA-binding protein pos-1 (Caenorhabditis elegans, UniProt G5EF15); assay: inhibitors of POS-1/mex-3 RNA binding, dose response, biochemical, fluorescence polarization (AID 1964);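 also: purified POS-1 fused to maltose binding protein made in E. coli; potency of compounds blocking POS-1 binding to fluorescent RNA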
T3 sequence (G5EF15 whole entry): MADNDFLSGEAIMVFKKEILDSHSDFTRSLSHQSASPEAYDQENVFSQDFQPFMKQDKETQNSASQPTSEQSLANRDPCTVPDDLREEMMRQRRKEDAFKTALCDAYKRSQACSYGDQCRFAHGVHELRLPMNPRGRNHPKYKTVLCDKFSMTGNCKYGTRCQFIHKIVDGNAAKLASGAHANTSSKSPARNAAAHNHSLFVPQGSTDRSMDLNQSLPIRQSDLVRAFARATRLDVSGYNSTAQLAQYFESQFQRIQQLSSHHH

[10] = molecular target: Peroxisome proliferator-activated receptor gamma/Nuclear receptor coactivator 1 (Homo sapiens, UniProt P37231); assay: (§1) TR-FRET dose response biochemical High Throughput Screening assay for agonists of the steroid receptor coactivator 1 (SRC-1) recruitment by the peroxisome proliferator-activated receptor gamma (PPAR gamma): non-selective agonists. [Related pubchem assays (depositor defined):AID1300, AID1808, AID504735, AID631]; assay type: protein assay
Sequence of Peroxisome proliferator-activated receptor gamma/Nuclear receptor coactivator 1 (P37231 whole entry): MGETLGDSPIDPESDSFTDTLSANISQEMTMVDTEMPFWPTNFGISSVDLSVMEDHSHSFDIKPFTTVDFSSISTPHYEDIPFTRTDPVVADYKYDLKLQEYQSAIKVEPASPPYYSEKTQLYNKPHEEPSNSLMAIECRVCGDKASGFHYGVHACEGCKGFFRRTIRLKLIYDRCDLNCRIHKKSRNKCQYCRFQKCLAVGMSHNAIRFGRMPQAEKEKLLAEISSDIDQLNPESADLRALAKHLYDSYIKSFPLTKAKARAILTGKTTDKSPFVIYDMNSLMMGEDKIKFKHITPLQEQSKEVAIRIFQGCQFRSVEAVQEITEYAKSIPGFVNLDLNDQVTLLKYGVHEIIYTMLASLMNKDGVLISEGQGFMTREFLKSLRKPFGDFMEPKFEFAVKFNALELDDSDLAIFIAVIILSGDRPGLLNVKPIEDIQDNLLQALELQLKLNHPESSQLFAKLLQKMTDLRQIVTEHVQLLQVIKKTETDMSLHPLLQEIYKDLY
Sequence of Peroxisome proliferator-activated receptor gamma/Nuclear receptor coactivator 1 (Q15788 whole entry, further chain): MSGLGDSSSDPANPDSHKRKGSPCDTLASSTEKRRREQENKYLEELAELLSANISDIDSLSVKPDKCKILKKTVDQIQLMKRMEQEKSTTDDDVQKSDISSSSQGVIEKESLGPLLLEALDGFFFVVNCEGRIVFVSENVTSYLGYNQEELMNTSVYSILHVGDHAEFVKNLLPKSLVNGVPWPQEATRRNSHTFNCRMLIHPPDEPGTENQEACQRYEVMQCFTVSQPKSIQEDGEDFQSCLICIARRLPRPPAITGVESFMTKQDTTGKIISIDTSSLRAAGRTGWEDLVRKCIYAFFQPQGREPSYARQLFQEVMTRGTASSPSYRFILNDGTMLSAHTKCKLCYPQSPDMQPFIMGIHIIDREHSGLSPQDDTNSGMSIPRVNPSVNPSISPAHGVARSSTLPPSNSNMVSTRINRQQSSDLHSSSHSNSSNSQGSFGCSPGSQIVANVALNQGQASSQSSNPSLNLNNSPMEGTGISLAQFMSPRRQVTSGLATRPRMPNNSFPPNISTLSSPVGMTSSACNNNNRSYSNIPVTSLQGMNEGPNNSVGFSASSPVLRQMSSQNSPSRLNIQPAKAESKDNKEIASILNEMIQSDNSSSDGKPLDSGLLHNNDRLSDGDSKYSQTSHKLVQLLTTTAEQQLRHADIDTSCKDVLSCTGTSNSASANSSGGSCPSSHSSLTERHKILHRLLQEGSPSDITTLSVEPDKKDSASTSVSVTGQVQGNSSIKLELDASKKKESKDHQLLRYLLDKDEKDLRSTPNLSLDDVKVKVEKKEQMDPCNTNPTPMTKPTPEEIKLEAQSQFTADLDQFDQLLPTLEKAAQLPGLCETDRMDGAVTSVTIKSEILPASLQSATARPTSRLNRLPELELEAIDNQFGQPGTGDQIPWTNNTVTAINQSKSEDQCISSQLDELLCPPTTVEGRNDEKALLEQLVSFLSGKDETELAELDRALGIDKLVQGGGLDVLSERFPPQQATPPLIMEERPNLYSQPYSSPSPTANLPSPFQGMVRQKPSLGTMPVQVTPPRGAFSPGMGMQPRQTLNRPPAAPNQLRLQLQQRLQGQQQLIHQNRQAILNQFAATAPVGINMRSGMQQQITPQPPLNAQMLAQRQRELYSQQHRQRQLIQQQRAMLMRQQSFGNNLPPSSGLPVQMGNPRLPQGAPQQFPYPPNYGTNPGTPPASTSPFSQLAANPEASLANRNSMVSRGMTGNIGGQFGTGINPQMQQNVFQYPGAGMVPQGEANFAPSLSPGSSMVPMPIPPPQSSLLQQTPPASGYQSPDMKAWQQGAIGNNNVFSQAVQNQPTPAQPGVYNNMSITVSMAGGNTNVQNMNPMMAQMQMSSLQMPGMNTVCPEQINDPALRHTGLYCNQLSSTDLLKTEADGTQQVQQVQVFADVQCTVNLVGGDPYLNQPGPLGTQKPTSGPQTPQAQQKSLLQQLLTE

[11] = molecular target: Peroxisome proliferator-activated receptor gamma/Nuclear receptor coactivator 3 (Homo sapiens, UniProt P37231); assay: as §1, with “3 (SRC-3)” for “1 (SRC-1)”, “assays: 1301 (Confirmation screen.), 1048 (Primary screen.)]” for “assays (depositor defined):AID1300, AID1808, AID504735, AID631]”; assay type: functional
[12] = molecular target: T4, Zinc finger protein mex-5 (Caenorhabditis elegans, UniProt Q9XUB2); assay: MEX-5/TCR-2 RNA interaction inhibitors, dose response, biochemical, C. elegans, fluorescence polarization (AID 1960)
T4 sequence (Q9XUB2 whole entry): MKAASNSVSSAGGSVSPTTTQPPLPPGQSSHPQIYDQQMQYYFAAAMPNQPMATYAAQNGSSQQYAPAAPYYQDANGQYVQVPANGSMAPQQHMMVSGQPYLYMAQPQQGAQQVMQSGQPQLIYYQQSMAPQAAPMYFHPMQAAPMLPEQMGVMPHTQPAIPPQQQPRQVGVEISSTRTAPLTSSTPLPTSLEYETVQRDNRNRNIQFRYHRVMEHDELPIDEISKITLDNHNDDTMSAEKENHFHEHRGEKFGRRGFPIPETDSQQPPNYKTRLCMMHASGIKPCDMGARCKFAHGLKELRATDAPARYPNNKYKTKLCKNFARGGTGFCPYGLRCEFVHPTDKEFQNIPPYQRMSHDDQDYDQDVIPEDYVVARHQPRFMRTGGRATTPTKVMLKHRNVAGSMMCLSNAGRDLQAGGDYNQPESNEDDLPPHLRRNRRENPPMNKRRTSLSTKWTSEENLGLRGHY

[13] = molecular target: Peroxisome proliferator-activated receptor gamma/Nuclear receptor coactivator 2 (Homo sapiens, UniProt P37231); assay: TR-FRET dose response biochemical High Throughput Screening assay for agonists of the steroid receptor coactivator 2 (SRC-2) recruitment by the peroxisome proliferator-activated receptor gamma (PPAR gamma): non-selective agonists. [Related pubchem assays: 1297, 1032 ]; assay type: functional
[14] = molecular target: T5, Corticotropin-releasing factor receptor 2/Corticotropin-releasing factor-binding protein (Homo sapiens, UniProt P24387+Q13324); assay: Dose Response confirmation of uHTS hits for small molecule antagonists of the CRF-binding protein and CRF-R2 receptor complex.; assay type: functional; conditions: read-out: IC50_Mean
T5 sequence (Q13324 whole entry): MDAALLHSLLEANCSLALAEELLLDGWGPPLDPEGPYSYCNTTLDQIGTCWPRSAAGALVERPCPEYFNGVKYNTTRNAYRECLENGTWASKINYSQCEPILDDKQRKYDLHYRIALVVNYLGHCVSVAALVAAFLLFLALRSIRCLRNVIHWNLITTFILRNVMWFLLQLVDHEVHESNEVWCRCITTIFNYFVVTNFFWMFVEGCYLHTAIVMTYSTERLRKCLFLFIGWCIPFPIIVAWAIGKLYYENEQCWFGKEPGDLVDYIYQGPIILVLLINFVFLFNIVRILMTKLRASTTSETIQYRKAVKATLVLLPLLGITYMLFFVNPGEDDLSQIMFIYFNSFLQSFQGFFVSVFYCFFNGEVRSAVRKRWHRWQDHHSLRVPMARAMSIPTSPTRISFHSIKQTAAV
T5 sequence (P24387 whole entry): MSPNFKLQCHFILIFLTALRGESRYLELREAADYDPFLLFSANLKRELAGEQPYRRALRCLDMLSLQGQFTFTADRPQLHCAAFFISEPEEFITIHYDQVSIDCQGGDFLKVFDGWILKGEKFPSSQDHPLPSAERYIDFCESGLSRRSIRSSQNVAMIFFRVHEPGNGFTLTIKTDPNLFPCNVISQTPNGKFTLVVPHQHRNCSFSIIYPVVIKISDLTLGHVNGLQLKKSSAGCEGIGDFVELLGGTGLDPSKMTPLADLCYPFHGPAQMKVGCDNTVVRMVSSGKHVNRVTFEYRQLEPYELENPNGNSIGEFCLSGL

[15] = molecular target: T5, Corticotropin-releasing factor receptor 2/Corticotropin-releasing factor-binding protein; assay: activators of CRF receptor 2 with binding protein – uHTS hits, confirmation (AID 602473); assay type: functional; conditions: read-out: EC50_Mean
[16] = cells; assay type: functional, cell-based
[17] = molecular target: T6, Nuclear receptor subfamily 0 group B member 1 (Homo sapiens, UniProt P51843); assay type: functional, cell-based;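 also: HEK293T cells transfected with SF-1 and DAX-1 plus StAR promoter luciferase reporter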
T6 sequence (P51843 whole entry): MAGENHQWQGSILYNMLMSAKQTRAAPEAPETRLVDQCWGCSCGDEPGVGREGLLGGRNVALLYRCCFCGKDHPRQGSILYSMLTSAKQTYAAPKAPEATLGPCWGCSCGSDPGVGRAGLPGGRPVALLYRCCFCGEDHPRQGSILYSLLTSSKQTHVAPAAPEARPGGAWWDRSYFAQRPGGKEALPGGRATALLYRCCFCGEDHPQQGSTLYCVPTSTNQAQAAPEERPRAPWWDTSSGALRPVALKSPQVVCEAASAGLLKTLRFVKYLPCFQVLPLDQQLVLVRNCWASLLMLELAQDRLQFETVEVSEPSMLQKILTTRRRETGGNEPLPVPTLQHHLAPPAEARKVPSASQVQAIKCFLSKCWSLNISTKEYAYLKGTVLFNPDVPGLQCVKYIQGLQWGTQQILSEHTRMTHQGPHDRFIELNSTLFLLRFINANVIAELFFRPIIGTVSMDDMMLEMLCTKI

[18] = molecular target: FAD-linked sulfhydryl oxidase ALR (Homo sapiens, UniProt P55789); assay: inhibitors of human ALR sulfhydryl oxidase, dose response, biochemical, H2O2 detection, luminescence, cherry-pick (AID 493248)
Sequence of FAD-linked sulfhydryl oxidase ALR (P55789 whole entry): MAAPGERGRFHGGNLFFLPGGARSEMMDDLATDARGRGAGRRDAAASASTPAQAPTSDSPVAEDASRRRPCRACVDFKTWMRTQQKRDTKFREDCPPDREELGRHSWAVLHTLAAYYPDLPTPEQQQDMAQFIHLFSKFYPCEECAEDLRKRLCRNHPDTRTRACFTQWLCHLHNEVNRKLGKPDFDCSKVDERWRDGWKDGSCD

[19] = molecular target: T7, Trace amine-associated receptor 1 (Homo sapiens, UniProt Q96RJ0); assay: Fluorescence-based cell-based high throughput dose response assay to identify agonists of the human trace amine associated receptor 1 (TAAR1).; assay type: functional
T7 sequence (Q96RJ0 whole entry): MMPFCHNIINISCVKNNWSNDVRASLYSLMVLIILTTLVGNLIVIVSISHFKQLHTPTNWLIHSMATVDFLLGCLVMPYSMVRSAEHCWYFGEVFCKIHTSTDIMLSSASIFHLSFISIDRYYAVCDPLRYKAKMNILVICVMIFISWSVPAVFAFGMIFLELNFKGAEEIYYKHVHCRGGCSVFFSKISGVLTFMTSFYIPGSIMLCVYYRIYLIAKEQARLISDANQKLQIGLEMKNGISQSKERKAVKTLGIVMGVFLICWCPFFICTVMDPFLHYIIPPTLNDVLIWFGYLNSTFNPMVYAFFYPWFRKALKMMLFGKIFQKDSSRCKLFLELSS

[20] = molecular target: T7, Trace amine-associated receptor 1; assay: Counterscreen for agonists of the human trace amine associated receptor 1 (hTAAR1): Fluorescence-based cell-based high throughput dose response assay to identify hTAAR1 agonist that also desensitize TAAR1 receptor response.; assay type: functional

## CCN1CCN(CCCNC(=O)c2ccc3c(c2)NC(=O)/C(=C\c2cccc(C)c2)S3)CC1
[1]
  AC50: 4.17 µM (active)
[2]
  IC50: > 20 µM (inactive)
[3]
  AC50: 9.93 µM (active)
[4]
  AC50: 6.5 µM (active)
[5]
  AC50: 17.5 µM (active)

## CCCC(=O)N1CCN(c2ccc(NC(=O)c3sc4ccccc4c3Cl)cc2)CC1
[6]
  AC50: 0.158 µM (inconclusive)
[7]
  AC50: 5.01 µM (inconclusive)
[8]
  AC50: inconclusive

## C=CCOc1ccc(C2C(C(=O)c3ccco3)=C(O)C(=O)N2c2nnc(C)s2)cc1 (configuration not stated)
[9]
  EC50: > 300 µM (not active)
[10]
  EC50: > 79.4 µM (inactive)
[11]
  EC50: > 79.4 µM (not active)
[12]
  EC50: > 300 µM (not active)
[13]
  EC50: > 79.4 µM (not active)
[14]
  IC50: > 47.1 µM (inactive)
[15]
  EC50: > 53 µM (inactive)

## CN1CCN(c2ccc(-c3cccc(NC(=O)COc4ccc(Cl)cc4)c3)nn2)CC1
[16]
  IC50: > 67.5 µM (inactive)
[17]
  IC50: > 67.5 µM (inactive)

## Cn1c(=O)c2[nH]c(Nc3ccccc3)nc2n(C)c1=O
[18]
  AC50: 0.398 µM (active)
[19]
  EC50: 5.67 µM (active)
[20]
  IC50: 9.39 µM (active)

## Cc1ccnc(NC(=O)c2cccc(S(=O)(=O)N3CCOCC3)c2)c1
[16]
  IC50: > 67.5 µM (inactive)
[17]
  IC50: > 67.5 µM (inactive)
